Test results as given in US20210308117A1, “METHODS OF TREATING VIRAL INFECTIONS USING INHIBITORS OF NUCLEOTIDE SYNTHESIS PATHWAYS” (priority 2020, published 2021).
Read-outs that look alike come from different tables or passages of the source.

Tests used:
SARS-CoV-2 = assay: microbe, parasite or virus in culture; format: cell-based
H1-HeLa cells [1] = details: human, 3 days
[2] = cited from earlier work
[3] = system: 16HBE (human bronchial epithelial); details: cited from earlier work
Vero76 (monkey kidney) = details: cited from earlier work
[4] = human, in vivo
[5] = Adverse events in subjects receiving brequinar; details: i.v. once a week
clinical = details: human, in vivo, po
[6] = system: HeLa (human cervical tumor); details: cited from earlier work
[7] = system: HuH7 (human hepatocellular carcinoma); details: cited from earlier work
[8] = system: Primary Human Fibroblasts; details: cited from earlier work
Vero (monkey kidney) = details: cited from earlier work
RNA virus = assay: Daily dosing of brequinar in a subject infected with an RNA virus; format: in vivo; details: once per day for five consecutive days; first peak in brequinar level
Description: The mechanism by which administration of a DHODH inhibitor according to a daily dosing regimen inhibits viral replication is illustrated below. […] Throughout the course of the dosing regimen, levels of intracellular pyrimidines, such as uridine, and viral replication are measured.

H1-HeLa cells [9] = assay: Cytotoxicity XTT assay in H1-HeLa cells; details: read-out: TC50, 3 days
[10] = in vivo, iv; cited from earlier work
[11] = weekly rapid iv injection; previously treated patients with advanced lung cancer; cited from earlier work
Vero E6 cells = details: remdesivir co-treated with brequinar
[12] = 1-h i.v. infusion every 3 weeks

CC(C)C[C@H](NC(=O)OCc1ccccc1)C(=O)N[C@@H](CC1CCNC1=O)C(O)S(=O)(=O)[O-].[Na+] (stereo partly drawn) [GC-376]
SI50 (Selective Index 50 = CC50/IC50) (SARS-CoV-2): >24.5

CCOC(=O)/C=C/[C@H](C[C@@H]1CCNC1=O)NC(=O)[C@@H](CC(=O)[C@@H](NC(=O)c1cc(C)on1)C(C)C)Cc1ccc(F)cc1 [Rupintrivir]
CC50 (H1-HeLa cells [1]): > 0.1 µM

Cc1c(-c2ccc(-c3ccccc3F)cc2)nc2ccc(F)cc2c1C(=O)O [brequinar sodium]
recommended dose for phase II studies, good-risk patients [2, 12]: 1,800 mg/m^2
recommended dose for phase II studies, poor-risk patients [2, 12]: 1,200 mg/m^2
maximum tolerable dose, good-risk patients ([2]; i.v. infusion every 3 weeks): 2,250 mg/m^2
maximum tolerable dose, poor-risk patients ([2]; i.v. infusion every 3 weeks): 1,500 mg/m^2

Cc1c(-c2ccc(-c3ccccc3F)cc2)nc2ccc(F)cc2c1C(=O)O [brequinar, 6-fluoro-2-(2′-fluoro-1,1′ biphenyl-4-yl)-3-methyl-4-quinoline carboxylic acid]
CC50 [3]: > 50 µM
CC50 (Vero76 (monkey kidney)): > 50 µM
cumulative effect of repeated doses [4]: No cumulative effective of repeated doses
Infection: No. of Patients, Max Grade 1 [5]: 4
Infection: No. of Patients, Max Grade 2 [5]: 3
Infection: No. of Patients, Max Grade 3 [5]: 0
Infection: No. of Patients, Max Grade 4 [5]: 0
bioavailability (clinical): > 90%
CC50 [6]: > 25 µM
CC50 [7]: > 25 µM
CC50 [8]: > 50 µM
CC50 (Vero (monkey kidney)): > 50 µM
intracellular pyrimidine pool (RNA virus): dramatic decrease in the intracellular pyrimidine pool
CC50 (H1-HeLa cells [9]): 0.3 µM
recommended dose for phase II evaluation, good risk patients [10]: 250 mg/m^2
recommended dose for phase II evaluation, poor risk patients [10]: 135 mg/m^2

NC(=O)c1[nH]nc([C@@H]2O[C@H](CO)[C@@H](O)[C@H]2O)c1O [pyrazofurin, 5-[(2S,3R,4S,5R)-3,4-dihydroxy-5-(hydroxymethyl)oxolan-2-yl]-4-hydroxy-1H-pyrazole-3-carboxamide]
therapeutic value [11]: little therapeutic value as a single agent

CCC(CC)COC(=O)[C@H](C)N[P@](=O)(OC[C@H]1O[C@@](C#N)(c2ccc3c(N)ncnn23)[C@H](O)[C@@H]1O)Oc1ccccc1 [remdesivir]
fold increase in activity of remdesivir (SARS-CoV-2): > 6.8 fold
E(Max) (SARS-CoV-2; SARS-CoV-2, Vero E6, maximum CPE-protection effect): 100
cytotoxicity by the co-treatment (Vero E6 cells): No enhanced cytotoxicity

NC(=O)c1ncn([C@@H]2O[C@H](CO)[C@@H](O)[C@H]2O)n1 [ribavirin]
EC50 (SARS-CoV-2; Severe acute respiratory syndrome coronavirus 2, Vero C1008, SARS-CoV-2, Vero E6, MOI 0.05, read-out: EC50 (50% of the maximum CPE-protection effect of the compound)): > 50 µM
